The results in this text go back to publication PMC9139002, “Naphthoquinone as a New Chemical Scaffold for Leishmanicidal Inhibitors of Leishmania GSK-3” (Biomedicines, 2022).

Series [1] concerns the target T1, LdGSK-3s (Leishmania donovani, UniProt A6N857). Kind of series: Inhibition of recombinant LdGSK-3s with Kinase Glo. It counts as biochemical. The following applies: for IC50: recombinant LdGSK-3s, Kinase Glo. The method, then: (§1) Extraction, purification, and evaluation of compounds against recombinant LdGSK-3s was carried out as described. For that, a recombinant LdGSK-3s with a His-tag was obtained as inclusion bodies, that were further solubilized, and purified by chromatography first on a Ni^2+ column an in a second step on a DEAE (diethylaminoethyl) ionic exchange column. Samples were made in duplicate, and assays were repeated at least three times. IC50 (inhibitory concentration that decreases enzymatic activity by 50%) was calculated using the statistical module of SigmaPlot v11.0 software. Evaluation of compounds against hGSK-3β was performed using human recombinant GSK-3β purchased from Millipore as described previously. Compounds were prepared as a 10 mM stock solution in DMSO.
On the technique in general: Kinase-Glo reads ATP consumption through a luciferase reaction.

Series [2] deals with mouse peritoneal macrophages (MPM). The experiment in a line: Cytotoxicity on mouse peritoneal macrophages (MTT reduction). Format: cell-based. As to conditions: for Selectivity Index (SI): IC50 MPM/IC50 axenic amastigotes; for IC50: Peritoneal macrophage, mouse peritoneal macrophages, MTT reduction. The method, then:
Leishmania parasites were collected at late exponential growth phase by centrifugation at 1610× g at 4 °C. Elicited mouse peritoneal macrophages (MPM) were obtained from 8-week-old Balb/c mice through i.p. injection with 1 mL of 10% thioglycolate medium 72 h before extraction. Macrophages were obtained by peritoneal washing (10 mL PBS, 4 °C).
(§2) Both activities were assessed by inhibition of MTT (3-(4,5-dimethylthiazol-2-yl)-2,5-diphenyltetrazolium bromide) reduction, as described in [34]. Samples were made in triplicate and assays were repeated at least twice. DMSO content in the medium was adjusted to 0.25% v/v (final concentration), regardless of the final concentration of the drug, and for the control, the untreated parasites. ICx (inhibitory concentration that inhibits parasite growth or enzymatic activity by x%) was calculated using the statistical module of SigmaPlot v11.0 software.

Series [3] relates to L. infantum promastigotes. The experiment in a line: Leishmanicidal activity on promastigotes (MTT reduction), Table 2 and Table S1. Format: cell-based, Leishmania infantum. The following applies: Leishmania infantum. As to the method:
as §2
In a step ahead, the leishmanicidal activity of the compounds on L. pifanoi axenic amastigotes and L. infantum promastigotes was evaluated. Axenic Leishmania amastigotes afford the appraisal of the leishmanicidal activity without the constrains imposed on the access of the compounds to intracellular amastigotes within the parasitophorous vacuole, as well as to preclude the interference of the compounds via host–parasite interface in the final activity. For that, the axenic line of L. pifanoi amastigotes belonging to the mexicana complex was chosen, as in this species the infectivity, antigenicity, and metabolic identity between axenic and intracellular amastigotes have been consistently validated.
On the technique in general: Tetrazolium dyes change colour on reduction, which living cells bring about.

Series [4] concerns L. donovani promastigotes. The experiment in a line: Sub G0/G1 population (propidium iodide flow cytometry). It counts as cell-based, Leishmania donovani. The following applies: 72 h. The method, then: L. donovani promastigotes (2 × 10^6 cells/mL) in RPMI-HIFCS were incubated with each compound in 24-well plates for 72 h at 26 °C by duplicate. Next, compounds were removed by washing with HBSS-Glc (15,700× g, 4 min, 4 °C) and cells were resuspended in […] of HBSS-Glc, fixed and permeabilized by addition of 200 μL 70% cold EtOH and incubated overnight at 4 °C. Ethanol was removed by centrifugation and cellular pellets washed with HBSS-Glc. Finally, cells were resuspended in 500 μL HBSS-Glc with 20 μg/mL propidium iodide (PI) and 3 mg/mL Ribonuclease A, and incubated in darkness at r. t. for 30 min. PI fluorescence was measured in a Coulter XL EPICS flow cytometer (Beckman Coulter, Nyon, Switzerland) (λEXC = 488 nm, λEM = 620 nm).
Each assay was repeated at least twice. Untreated cells were used as control for a standard cell cycle histogram, and Miltefosine (hexadecylphosphocholine) (15 μM) was used as control for an apoptosis-inducing respiratory inhibitor [51].
Parasites were incubated with the corresponding drug for 72 h, followed by EtOH permeabilization, incubated with 3 mg/mL Ribonuclease A and stained with 20 μg/mL of propidium iodide (PI) before cytofluorometric analysis. (λEXC = 488 nm, λEM = 620 nm). The percentage of subG0/G1 population (enclosed within green bars) stands for degraded chromatin, associated with the apoptotic-like process. Miltefosine (hexadecylphosphocholine, HePc) at 15 μM was added as a control for induction of apoptosis.
Background: A flow cytometer gives signals particle by particle.

Series [5] concerns the target T2, hGSK-3β (Homo sapiens, UniProt P49841).
T2 construct: purchased Millipore
The experiment in a line: Inhibition of human recombinant GSK-3β. It counts as biochemical. As to conditions: read-out: percentage of inhibition of hGSK-3β. The method, then:
as §1

Series [6] deals with T1, LdGSK-3s. The experiment in a line: Mechanism of inhibition of LdGSK-3s (kinetics versus ATP, Eadie–Scatchard plot). The following applies: ATP 1 to 10 μM, inhibitor 2.5 and 5 μM, GS2 25 μM. Format: biochemical. The method, then:
Briefly, kinetic experiments were carried out at four different concentrations of ATP (10, 5, 2.5, and 1 µM), in the absence or presence of the inhibitors, at either 2.5 or 5 µM, while the phospho-glycogen synthase peptide-2 (GS2) substrate was kept constant at 25 µM. The data were processed using Microsoft Excel software and results presented as Eadie–Scatchard plots (v vs. v/[ATP]).

For series [7], the system named is L. pifanoi axenic amastigotes. The experiment in a line: Leishmanicidal activity on axenic amastigotes (MTT reduction). It counts as cell-based, Leishmania pifanoi. As to conditions: Leishmania pifanoi.
Series [8] relates to L. donovani promastigotes. The experiment in a line: Mitochondrial membrane depolarization (Rhodamine 123 accumulation). Format: cell-based, Leishmania donovani. The following applies: 4 h; for decrease of Rh123 fluorescence: 2 μM (IC80).
In series [9] the test system is intracellular L. pifanoi amastigotes. The experiment in a line: Parasite load of macrophages infected with mCherry-L. pifanoi amastigotes. It counts as cell-based, Leishmania pifanoi.
Series [10] concerns L. donovani promastigotes. The experiment in a line: Leishmanicidal activity on promastigotes (MTT reduction), Table 1. Format: cell-based. As to conditions: Leishmania donovani.

T2 sequence (P49841 whole entry): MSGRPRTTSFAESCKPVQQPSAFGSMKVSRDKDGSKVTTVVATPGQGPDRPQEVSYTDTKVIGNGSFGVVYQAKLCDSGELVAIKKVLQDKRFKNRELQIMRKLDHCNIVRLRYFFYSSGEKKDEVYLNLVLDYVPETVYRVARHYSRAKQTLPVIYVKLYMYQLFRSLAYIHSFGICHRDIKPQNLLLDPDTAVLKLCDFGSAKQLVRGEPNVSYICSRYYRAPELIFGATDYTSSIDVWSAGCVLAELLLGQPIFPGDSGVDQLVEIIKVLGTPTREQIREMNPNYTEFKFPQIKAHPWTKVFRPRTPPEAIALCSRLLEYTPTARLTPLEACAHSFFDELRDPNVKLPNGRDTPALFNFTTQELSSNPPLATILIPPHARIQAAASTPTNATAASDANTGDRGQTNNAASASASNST
T1 sequence (A6N857 entry or part of it): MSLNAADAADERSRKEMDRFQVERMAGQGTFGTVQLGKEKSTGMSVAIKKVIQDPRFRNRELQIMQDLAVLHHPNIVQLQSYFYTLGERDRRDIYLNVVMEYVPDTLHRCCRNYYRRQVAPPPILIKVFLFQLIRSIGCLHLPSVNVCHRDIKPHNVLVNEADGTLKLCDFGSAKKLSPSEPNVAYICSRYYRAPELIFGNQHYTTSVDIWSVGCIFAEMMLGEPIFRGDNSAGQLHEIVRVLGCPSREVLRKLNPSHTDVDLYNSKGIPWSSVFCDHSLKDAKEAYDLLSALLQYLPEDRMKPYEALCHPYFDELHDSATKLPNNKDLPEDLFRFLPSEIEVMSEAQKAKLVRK

Consider `CCOC(=O)NC1=C(Cl)C(=O)c2ccccc2C1=O` [Compound 1, Ethyl-(3-chloro-1,4-naphthoquinone-2-yl)carbamate], for which the melting point (usually the temperature, or range, at which the solid turns liquid) lay within 147 to 149 °C. The half-maximal inhibitory concentration (IC50) (as a rule, the midpoint of a concentration-inhibition curve) in series [1] is 3700 ± 300 nM. In addition, in [2], the “Selectivity Index (SI)” value was found to be 20.6 and the IC50 was 3100 ± 100 nM. Further, in series [3], the IC50 is 1540 ± 10 nM. In addition, in series [4] (2 μM (IC80)), the “percentage of subG0/G1 population” value is 54.0 ± 4.2%. Further, in [5], the inhibition – broadly, the relative decrease from the control value, in per cent – at 10 µM amounted to 30%. For the same compound, in series [6], the “mechanism of inhibition of LdGSK-3s” value is “ATP competitive inhibitors”. In addition, the half-maximal inhibitory concentration (IC50) in series [7] stood at 150 ± 400 nM. For the same compound, the “decrease of Rh123 fluorescence” value in series [8] came to 33.0%.

For the compound `O=C(NC1=C(Cl)C(=O)c2ccccc2C1=O)OCc1ccccc1` [Compound 3, Benzyl-(3-chloro-1,4-naphthoquinone-2-yl)carbamate], the half-maximal inhibitory concentration (IC50) turned out to be 2800 ± 100 nM in series [1], 9800 ± 200 nM in series [2], 4900 ± 200 nM in [3] and 4700 ± 800 nM in [7]. For the same compound, the inhibition at 10 µM in series [5] came out at 19%.

With `CC(C)OC(=O)NC1=C(Cl)C(=O)c2ccccc2C1=O` [Compound 2, Isopropyl-(3-chloro-1,4-naphthoquinone-2-yl)carbamate], the IC50 worked out at 2500 ± 200 nM in [1], 4510 ± 300 nM in series [2], 1470 ± 20 nM in series [3] and 400 ± 200 nM in [7]. Moreover, in series [4] (2 μM (IC80)), the “percentage of subG0/G1 population” value was determined as 59.6 ± 1.1%. In addition, the “decrease in parasite load” value in [9] (2 μM) was determined as 76.3%. The inhibition at 10 µM in series [5] is 25%. In addition, the “mechanism of inhibition of LdGSK-3s” value in series [6] is reported as “ATP competitive inhibitors”. For the same compound, in series [8], the “decrease of Rh123 fluorescence” value amounted to 26.4%.

For the compound `CCOC(=O)NC1=CC(=O)c2ccccc2C1=O` [Compound 17, Ethyl-(1,4-naphthoquinone-2-yl)carbamate], the melting point lay within 162 to 163 °C. Moreover, in [1], the IC50 is over 10000 nM. Also, in [2], the “Selectivity Index (SI)” value is 2.5 and the 50% inhibitory concentration (IC50) turned out to be 4200 ± 200 nM. In addition, the half-inhibitory concentration (IC50) in series [3] came out at 4500 ± 700 nM. Also, the IC50 in series [7] stood at 1700 ± 100 nM.

On to `O=C1C=C(O)C(=O)c2c(O)c(Cl)c(Cl)c(O)c21` [MBC-10], for which the inhibition at 10 µM in series [1] (at 10 μM) worked out at 45.7%. Also, the IC50 was about 10000 nM in series [1], 10500 ± 1200 nM in series [3], 10500 ± 1200 nM in [10] and 11200 ± 2500 nM in series [7].

As for `CC(C)(C)NC(=O)NC1=C(Cl)C(=O)c2ccccc2C1=O` [Compound 14, 1-(tert-Butyl)-3-(3-chloro-1,4-naphthoquinone-2-yl)urea], the melting point was 195 to 196 °C. Besides, in series [1], the IC50 was over 10000 nM. In [2], the “Selectivity Index (SI)” value is reported as 0.6 and inhibition was half-maximal at 1300 ± 300 nM (IC50). This compound also gave a concentration for half-maximal inhibition (IC50) in series [3] of 1400 ± 400 nM. Moreover, in series [7], the midpoint of inhibition, the IC50, lay at 2100 ± 600 nM.

`COC(=O)NC1=CC(=O)c2ccccc2C1=O` [Compound 16, Methyl-(1,4-naphthoquinone-2-yl)carbamate] gave a melting point of 201 to 202 °C. For the same compound, the IC50 in [1] was over 10000 nM. Also, in series [2], the “Selectivity Index (SI)” value is recorded as 2.2 and half-maximal inhibition (IC50) required 3800 ± 300 nM. This compound also registered a 50% inhibitory concentration (IC50) in series [3] of 4100 ± 800 nM. In series [7], this compound came in with an IC50 of 1700 ± 200 nM.

On to `COC(=O)NC1=C(Cl)C(=O)c2ccccc2C1=O` [MBC-132], for which the IC50 was determined as 2500 ± 100 nM in series [1]; 2600 nM in [2]; 1510 ± 20 nM in [3]; 1510 ± 20 nM in [10]; 510 ± 10 nM in series [7]. Besides, the “Selectivity Index (SI)” value in series [2] is given as 5.1. Besides, the “percentage of subG0/G1 population” value in [4] (3 μM (IC80)) worked out at 63.2 ± 0.3%. Moreover, the “decrease in parasite load” value in [9] (1 μM) is 39.1%. Besides, the inhibition at 10 µM in [5] is 19%. The “decrease in Rh123 accumulation” value in series [8] (3 μM (IC80)) was about 70%.

With `CCCCCCCCCCCCCCCCOP(=O)([O-])OCC[N+](C)(C)C` [HePc, hexadecylphosphocholine, reference compound], the “percentage of subG0/G1 population” value in series [4] (15 μM, control for induction of apoptosis) stood at 36.8 ± 1.1%.
